# From ChEMBL document CHEMBL3621077, “Synthesis of hybrid anticancer agents based on kinase and histone deacetylase inhibitors” (Medchemcomm, 2014)
# Calls of active or inactive are those of the source. The calls are words filed in the database; no cut-off is given here.
# Assays:
# SW-620 = assay: Cytotoxicity against human SW620 cells; assay type: functional
# HCT-116 = assay: Cytotoxicity against human HCT116 cells; assay type: functional
# SF-268 = assay: Cytotoxicity against human SF268 cells; assay type: functional
# UO-31 = assay: Cytotoxicity against human UO31 cells; assay type: functional
# SF-295 = assay: Cytotoxicity against human SF295 cells; assay type: functional
# RPMI-8226 = assay: Cytotoxicity against human RPMI8226 cells; assay type: functional
# OVCAR-3 = assay: Cytotoxicity against human OVCAR3 cells; assay type: functional
# OVCAR-5 = assay: Cytotoxicity against human OVCAR5 cells; assay type: functional
# 786-0 = assay: Cytotoxicity against human 786-0 cells; assay type: functional
# LOX IMVI = assay: Cytotoxicity against human LOXIMVI cells; assay type: functional
# NCI-H522 = assay: Cytotoxicity against human NCI-H522 cells; assay type: functional
# SK-OV-3 = assay: Cytotoxicity against human SKOV3 cells; assay type: functional
# UACC-62 = assay: Cytotoxicity against human UACC62 cells; assay type: functional
# RXF 393 = assay: Cytotoxicity against human RXF393 cells; assay type: functional
# MDA-MB-435 = assay: Cytotoxicity against human MDA-MB-435 cells; assay type: functional
# Xenopus laevis [1] = organism: Xenopus laevis; assay: Inhibition of angiogenesis in Xenopus laevis embryo heart assessed as effect on Egfl7 expression in intersomitic vessels at 100 uM at stage 9 incubated for 72 hrs until stage 38 measured by WISH method; assay type: functional, organism-based; conditions: Intersomitic vessel
# K562 = assay: Cytotoxicity against human K562 cells; assay type: functional
# CCRF-CEM = assay: Cytotoxicity against human CCRF-CEM cells; assay type: functional
# TK-10 = assay: Cytotoxicity against human TK10 cells; assay type: functional
# Histone deacetylase 5 = Histone deacetylase 5 (Homo sapiens, UniProt Q9UQL6); assay: Inhibition of HDAC5 (unknown origin); conditions: read-out: IC50
# Chain of Histone deacetylase 5 (Q9UQL6 whole entry): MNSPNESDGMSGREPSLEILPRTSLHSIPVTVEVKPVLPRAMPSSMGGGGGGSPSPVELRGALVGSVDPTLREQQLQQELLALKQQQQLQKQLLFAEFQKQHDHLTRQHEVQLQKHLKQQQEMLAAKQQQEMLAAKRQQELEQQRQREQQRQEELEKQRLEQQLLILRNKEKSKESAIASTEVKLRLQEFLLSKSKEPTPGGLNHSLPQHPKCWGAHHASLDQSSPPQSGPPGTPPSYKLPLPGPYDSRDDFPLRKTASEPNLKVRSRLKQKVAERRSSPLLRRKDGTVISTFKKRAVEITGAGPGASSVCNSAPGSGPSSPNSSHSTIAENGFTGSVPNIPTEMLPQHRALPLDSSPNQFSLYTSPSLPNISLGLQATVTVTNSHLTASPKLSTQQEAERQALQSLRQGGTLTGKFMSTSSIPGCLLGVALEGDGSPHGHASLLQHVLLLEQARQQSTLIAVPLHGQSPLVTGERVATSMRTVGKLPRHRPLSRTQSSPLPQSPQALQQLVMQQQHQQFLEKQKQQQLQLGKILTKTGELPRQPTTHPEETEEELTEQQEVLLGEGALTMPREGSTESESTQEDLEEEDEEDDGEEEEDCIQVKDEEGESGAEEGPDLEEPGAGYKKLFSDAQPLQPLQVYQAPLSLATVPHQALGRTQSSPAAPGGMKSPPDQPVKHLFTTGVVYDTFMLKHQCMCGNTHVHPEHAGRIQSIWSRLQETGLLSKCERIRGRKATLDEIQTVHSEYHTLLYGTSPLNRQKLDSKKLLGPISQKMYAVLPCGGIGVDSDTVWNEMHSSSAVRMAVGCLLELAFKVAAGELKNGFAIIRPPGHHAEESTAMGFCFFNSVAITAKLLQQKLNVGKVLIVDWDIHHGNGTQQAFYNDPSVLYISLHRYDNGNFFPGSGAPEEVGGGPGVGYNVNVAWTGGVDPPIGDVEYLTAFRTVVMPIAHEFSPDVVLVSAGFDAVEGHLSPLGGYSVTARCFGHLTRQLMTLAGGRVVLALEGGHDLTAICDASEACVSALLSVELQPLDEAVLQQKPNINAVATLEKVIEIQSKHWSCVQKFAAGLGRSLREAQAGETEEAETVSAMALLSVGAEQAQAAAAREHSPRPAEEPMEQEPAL
# A498 = assay: Cytotoxicity against human A498 cells; assay type: functional
# NCI-H23 = assay: Cytotoxicity against human NCI-H23 cells; assay type: functional
# SN12C = assay: Cytotoxicity against human SN12C cells; assay type: functional
# Histone deacetylase 9 = Histone deacetylase 9 (Homo sapiens, UniProt Q9UKV0); assay: Inhibition of HDAC9 (unknown origin)
# Chain of Histone deacetylase 9 (Q9UKV0 whole entry): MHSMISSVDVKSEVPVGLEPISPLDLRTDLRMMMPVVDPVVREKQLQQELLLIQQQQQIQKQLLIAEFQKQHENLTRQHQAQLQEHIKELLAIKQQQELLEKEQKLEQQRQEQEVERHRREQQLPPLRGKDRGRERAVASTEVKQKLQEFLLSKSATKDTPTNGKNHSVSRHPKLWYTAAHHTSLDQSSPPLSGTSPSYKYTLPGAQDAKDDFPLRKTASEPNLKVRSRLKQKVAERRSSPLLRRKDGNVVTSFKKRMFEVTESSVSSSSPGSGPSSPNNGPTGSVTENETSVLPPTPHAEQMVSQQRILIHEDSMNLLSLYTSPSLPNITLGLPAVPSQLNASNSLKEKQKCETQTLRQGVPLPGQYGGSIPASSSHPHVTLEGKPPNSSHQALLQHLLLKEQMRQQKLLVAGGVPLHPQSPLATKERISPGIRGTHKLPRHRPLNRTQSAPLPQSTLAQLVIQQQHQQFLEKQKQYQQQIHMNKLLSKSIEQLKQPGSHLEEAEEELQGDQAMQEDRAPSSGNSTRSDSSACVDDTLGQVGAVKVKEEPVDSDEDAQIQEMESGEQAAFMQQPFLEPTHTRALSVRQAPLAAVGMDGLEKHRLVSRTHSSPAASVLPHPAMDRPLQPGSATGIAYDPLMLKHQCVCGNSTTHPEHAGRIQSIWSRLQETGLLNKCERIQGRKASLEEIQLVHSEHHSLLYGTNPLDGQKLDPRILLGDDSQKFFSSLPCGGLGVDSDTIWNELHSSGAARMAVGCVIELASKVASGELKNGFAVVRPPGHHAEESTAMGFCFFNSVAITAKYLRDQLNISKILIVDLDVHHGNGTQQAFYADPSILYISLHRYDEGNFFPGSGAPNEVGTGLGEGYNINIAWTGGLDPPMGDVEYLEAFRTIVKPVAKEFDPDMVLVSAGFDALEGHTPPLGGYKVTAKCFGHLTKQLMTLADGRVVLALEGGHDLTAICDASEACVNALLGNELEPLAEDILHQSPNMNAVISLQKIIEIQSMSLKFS
# MCF7 = assay: Cytotoxicity against human MCF7 cells; assay type: functional
# HOP-62 = assay: Cytotoxicity against human HOP62 cells; assay type: functional
# [2] = target: T1, Protein deacetylase HDAC6 (Homo sapiens, UniProt Q9UBN7); assay: Inhibition of HDAC6 (unknown origin); conditions: read-out: IC50
# T1 sequence (Q9UBN7 whole entry): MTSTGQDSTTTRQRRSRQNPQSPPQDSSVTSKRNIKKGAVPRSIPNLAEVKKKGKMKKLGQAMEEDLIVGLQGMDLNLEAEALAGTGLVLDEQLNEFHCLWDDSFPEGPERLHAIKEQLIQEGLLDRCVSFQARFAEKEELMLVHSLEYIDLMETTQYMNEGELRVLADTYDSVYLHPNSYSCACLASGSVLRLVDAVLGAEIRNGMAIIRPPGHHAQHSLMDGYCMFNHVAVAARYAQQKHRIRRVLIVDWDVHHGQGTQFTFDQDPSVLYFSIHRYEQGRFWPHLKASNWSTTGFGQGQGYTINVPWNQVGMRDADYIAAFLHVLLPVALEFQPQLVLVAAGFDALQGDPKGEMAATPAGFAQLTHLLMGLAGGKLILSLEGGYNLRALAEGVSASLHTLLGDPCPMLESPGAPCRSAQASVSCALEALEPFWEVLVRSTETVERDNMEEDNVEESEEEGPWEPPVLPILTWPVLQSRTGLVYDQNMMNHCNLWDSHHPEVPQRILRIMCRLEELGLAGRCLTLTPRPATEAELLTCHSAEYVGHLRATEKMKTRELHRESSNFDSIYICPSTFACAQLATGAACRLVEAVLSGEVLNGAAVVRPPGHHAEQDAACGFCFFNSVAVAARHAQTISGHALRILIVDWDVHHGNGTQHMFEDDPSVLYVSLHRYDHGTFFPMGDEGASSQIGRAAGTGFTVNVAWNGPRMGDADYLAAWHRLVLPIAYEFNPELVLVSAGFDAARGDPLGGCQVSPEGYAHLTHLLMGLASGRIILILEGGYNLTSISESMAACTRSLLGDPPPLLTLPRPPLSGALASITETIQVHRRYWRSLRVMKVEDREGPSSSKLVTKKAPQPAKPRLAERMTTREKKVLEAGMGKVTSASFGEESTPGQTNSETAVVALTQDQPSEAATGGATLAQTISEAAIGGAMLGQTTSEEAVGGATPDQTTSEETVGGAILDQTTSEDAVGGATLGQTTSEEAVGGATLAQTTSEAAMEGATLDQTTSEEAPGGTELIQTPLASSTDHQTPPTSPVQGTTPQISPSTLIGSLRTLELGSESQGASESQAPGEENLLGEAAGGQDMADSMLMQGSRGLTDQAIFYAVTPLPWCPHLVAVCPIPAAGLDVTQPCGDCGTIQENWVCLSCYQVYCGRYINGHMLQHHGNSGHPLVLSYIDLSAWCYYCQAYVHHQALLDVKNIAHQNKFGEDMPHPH
# [3] = target: Vascular endothelial growth factor receptor 2 (Homo sapiens, UniProt P35968); assay: Inhibition of VEGFR2 (unknown origin); conditions: read-out: IC50
# Chain of Vascular endothelial growth factor receptor 2 (P35968 whole entry): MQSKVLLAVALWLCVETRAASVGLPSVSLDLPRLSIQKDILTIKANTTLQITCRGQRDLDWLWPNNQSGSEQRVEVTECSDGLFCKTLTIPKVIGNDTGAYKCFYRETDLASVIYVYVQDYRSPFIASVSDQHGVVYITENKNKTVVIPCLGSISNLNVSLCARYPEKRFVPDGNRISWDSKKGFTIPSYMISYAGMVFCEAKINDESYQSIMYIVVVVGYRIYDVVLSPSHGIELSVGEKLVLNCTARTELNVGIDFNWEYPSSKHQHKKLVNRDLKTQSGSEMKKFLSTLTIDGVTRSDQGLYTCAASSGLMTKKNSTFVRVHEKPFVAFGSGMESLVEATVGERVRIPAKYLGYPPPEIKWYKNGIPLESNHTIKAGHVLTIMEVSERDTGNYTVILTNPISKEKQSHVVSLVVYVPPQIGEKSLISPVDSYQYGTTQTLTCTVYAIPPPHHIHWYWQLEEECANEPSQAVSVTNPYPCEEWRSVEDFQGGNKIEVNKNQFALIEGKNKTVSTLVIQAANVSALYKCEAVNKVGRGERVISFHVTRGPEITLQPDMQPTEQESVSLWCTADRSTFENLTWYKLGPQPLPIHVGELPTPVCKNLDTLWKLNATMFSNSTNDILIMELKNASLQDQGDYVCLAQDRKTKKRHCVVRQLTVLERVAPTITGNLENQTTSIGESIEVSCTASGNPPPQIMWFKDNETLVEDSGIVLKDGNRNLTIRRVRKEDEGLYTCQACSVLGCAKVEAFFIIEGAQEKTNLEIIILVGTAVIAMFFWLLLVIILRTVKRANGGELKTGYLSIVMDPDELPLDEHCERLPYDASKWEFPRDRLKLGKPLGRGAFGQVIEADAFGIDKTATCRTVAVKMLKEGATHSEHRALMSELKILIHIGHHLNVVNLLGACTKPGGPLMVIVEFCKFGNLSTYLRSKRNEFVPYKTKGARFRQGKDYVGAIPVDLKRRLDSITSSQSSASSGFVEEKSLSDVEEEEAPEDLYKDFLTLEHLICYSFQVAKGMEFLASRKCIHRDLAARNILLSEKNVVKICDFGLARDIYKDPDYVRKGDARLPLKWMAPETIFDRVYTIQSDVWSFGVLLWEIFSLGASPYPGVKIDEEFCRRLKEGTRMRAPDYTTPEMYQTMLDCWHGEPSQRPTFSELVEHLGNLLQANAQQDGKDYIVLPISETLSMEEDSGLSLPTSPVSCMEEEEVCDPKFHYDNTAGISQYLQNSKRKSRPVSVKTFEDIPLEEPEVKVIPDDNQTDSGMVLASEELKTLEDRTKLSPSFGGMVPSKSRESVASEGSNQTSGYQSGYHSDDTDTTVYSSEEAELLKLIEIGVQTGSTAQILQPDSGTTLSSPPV
# SR = assay: Cytotoxicity against human SR cells; assay type: functional
# Xenopus laevis [4] = organism: Xenopus laevis; assay: Inhibition of angiogenesis in Xenopus laevis embryo heart assessed as reduction in tube formation at 100 uM at stage 9 incubated for 72 hrs until stage 38 measured by WISH method; assay type: functional, organism-based
# [5] = target: Mast/stem cell growth factor receptor Kit (Homo sapiens) (UniProt P10721); assay: Inhibition of c-kit (unknown origin) at 10 uM
# Chain of Mast/stem cell growth factor receptor Kit (Homo sapiens) (P10721 whole entry): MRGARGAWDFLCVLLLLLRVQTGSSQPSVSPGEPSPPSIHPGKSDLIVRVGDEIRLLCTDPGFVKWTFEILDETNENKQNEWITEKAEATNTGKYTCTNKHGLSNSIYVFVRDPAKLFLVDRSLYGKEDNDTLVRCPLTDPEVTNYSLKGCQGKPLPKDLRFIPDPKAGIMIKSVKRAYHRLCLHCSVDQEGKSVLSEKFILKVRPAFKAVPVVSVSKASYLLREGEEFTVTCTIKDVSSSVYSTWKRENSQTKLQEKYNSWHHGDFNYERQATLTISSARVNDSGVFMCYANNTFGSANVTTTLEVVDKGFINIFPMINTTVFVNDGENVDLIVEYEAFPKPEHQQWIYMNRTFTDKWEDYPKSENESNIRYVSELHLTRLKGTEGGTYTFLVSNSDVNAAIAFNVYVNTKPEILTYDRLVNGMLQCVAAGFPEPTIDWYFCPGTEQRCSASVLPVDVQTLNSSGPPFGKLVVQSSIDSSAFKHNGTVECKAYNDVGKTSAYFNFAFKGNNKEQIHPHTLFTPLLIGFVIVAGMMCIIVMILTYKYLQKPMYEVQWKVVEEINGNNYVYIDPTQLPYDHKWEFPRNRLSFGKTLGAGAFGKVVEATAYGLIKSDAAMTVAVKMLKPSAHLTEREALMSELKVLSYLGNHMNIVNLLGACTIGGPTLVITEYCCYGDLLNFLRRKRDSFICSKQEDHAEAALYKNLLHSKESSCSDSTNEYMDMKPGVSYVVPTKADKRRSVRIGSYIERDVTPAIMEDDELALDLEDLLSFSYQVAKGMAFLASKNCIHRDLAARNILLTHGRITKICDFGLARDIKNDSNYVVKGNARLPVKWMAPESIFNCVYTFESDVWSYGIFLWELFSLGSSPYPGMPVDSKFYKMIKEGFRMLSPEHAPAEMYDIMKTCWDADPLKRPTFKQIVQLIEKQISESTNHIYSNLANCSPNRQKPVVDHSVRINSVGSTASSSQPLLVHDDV
# SK-MEL-2 = assay: Cytotoxicity against human SK-MEL-2 cells; assay type: functional
# HOP-92 = assay: Cytotoxicity against human HOP92 cells; assay type: functional
# SK-MEL-5 = assay: Cytotoxicity against human SK-MEL-5 cells; assay type: functional
# MDA-MB-231 = assay: Cytotoxicity against human MDA-MB-231 cells assessed as reduction of cell viability at 200 uM after 72 hrs by MTT assay relative to control; assay type: functional
# NCI-H226 = assay: Cytotoxicity against human NCI-H226 cells; assay type: functional
# M14 = assay: Cytotoxicity against human M14 cells; assay type: functional
# SF-539 = assay: Cytotoxicity against human SF539 cells; assay type: functional
compound,measurement,setting,value
O=C(CCCCCCC(=O)Nc1ccc2c(c1)/C(=C/c1ccc[nH]1)C(=O)N2)NO,GI50,SW-620,275 nM
same,GI50,HCT-116,238 nM
same,GI50,SF-268,1190 nM
same,GI50,UO-31,775 nM
same,GI50,SF-295,1310 nM
same,GI50,RPMI-8226,2920 nM
same,GI50,OVCAR-3,3600 nM
same,GI50,OVCAR-5,1120 nM
same,GI50,786-0,2400 nM
same,GI50,LOX IMVI,565 nM
same,GI50,NCI-H522,87 nM
same,GI50,SK-OV-3,363 nM
same,GI50,UACC-62,301 nM
same,GI50,RXF 393,518 nM
same,GI50,MDA-MB-435,341 nM
same,inhibition,Xenopus laevis [1],inactive
same,GI50,K562,251 nM
same,GI50,CCRF-CEM,102 nM
same,GI50,TK-10,795 nM
same,IC50,Histone deacetylase 5,850 nM
same,GI50,A498,365 nM
same,GI50,NCI-H23,1320 nM
same,GI50,SN12C,2190 nM
same,IC50,Histone deacetylase 9,Not Active
same,GI50,MCF7,440 nM
same,GI50,HOP-62,381 nM
same,IC50,[2],0.323 nM
same,IC50,[3],237 nM
same,GI50,SR,296 nM
same,Activity,Xenopus laevis [4],inactive
same,inhibition,[5],inactive
same,GI50,SK-MEL-2,989 nM
same,GI50,HOP-92,412 nM
same,GI50,SK-MEL-5,243 nM
same,Activity,MDA-MB-231,30%
same,GI50,NCI-H226,2320 nM
same,GI50,M14,489 nM
same,GI50,SF-539,605 nM
